Experimental findings from patent publication US20230416329A1, “A PEPTIDE WITH DISULFIDE BONDS AND INHIBITORY ACTIVITY AGAINST SERINE PROTEASES, DERIVED HYBRID PEPTIDES THEREOF, AND USES THEREOF” (INSTITUTE OF MATERIA MEDICA , CHINESE ACADEMY OF MEDICAL …, priority 2020, published 2023) are described below.

The assay deals with T1, bovine trypsin (Bos taurus, UniProt P00760).
T1 sequence (P00760 24-246): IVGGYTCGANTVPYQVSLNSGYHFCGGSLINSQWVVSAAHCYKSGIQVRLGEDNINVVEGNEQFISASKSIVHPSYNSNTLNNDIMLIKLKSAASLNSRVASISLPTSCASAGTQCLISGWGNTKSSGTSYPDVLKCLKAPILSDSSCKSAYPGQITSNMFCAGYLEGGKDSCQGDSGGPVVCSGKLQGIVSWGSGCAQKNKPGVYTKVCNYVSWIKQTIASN
In words: Trypsin inhibitory activity of peptides (BApNA hydrolysis, OD405; IC50, Ki, residual activity). The format is biochemical. The conditions noted are these: for IC50: trypsin 50 nM, BApNA 1.22 mM, read-out: IC50. A digest of the protocol: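 Trypsin (50 nM final) preincubated with peptides at 37 °C in 50 mM Tris-HCl pH 7.8, 20 mM CaCl2; BApNA added (1.22 mM final), 260 min at 37 °C, then OD405 read. Residual activity from enzyme-only and substrate-only controls; IC50 fitted and converted to Ki via Ki=IC50/(1+S/Km), Km measured separately for BApNA.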

[1] abbreviates: Ki=IC50/(1+S/Km), Km 0.33 mM, read-out: Ki.
Where [2] appears, read: read-out: inhibition constant (Ki) towards trypsin.

Like-named read-outs stand apart in the source and are kept apart here. Bridge positions count the residues as written; N and C are the ends. Peptide text beside a SMILES is read from it.

As for `CC[C@H](C)[C@@H]1NC(=O)[C@H](CO)NC(=O)[C@H](CCCNC(=N)N)NC(=O)[C@H]([C@@H](C)O)NC(=O)[C@H](C)NC(=O)[C@H](CCCNC(=N)N)NC(=O)CNC(=O)[C@@H](N)CSSC[C@@H](C(=O)N[C@@H](Cc2ccccc2)C(=O)O)NC(=O)[C@H](C)NC(=O)[C@@H]2CCCN2C(=O)[C@@H]2CCCN2C1=O` [BT15] (H-CGRATRSIPPACF-OH; disulfide 1-12; N-terminus and C-terminus assumed), the “inhibitory activity against trypsin (in words)” value (“inhibitory activity … (in words)” below) is reported as “significant impact on their anti-trypsisn activities”.

As a reminder, the IC50 is the point on the concentration scale where inhibition reaches its midpoint. Consider `CC[C@H](C)[C@@H]1NC(=O)[C@H](CO)NC(=O)[C@H](CCCCN)NC(=O)[C@H]([C@@H](C)O)NC(=O)[C@H](Cc2c[nH]c3ccccc23)NC(=O)CNC(=O)[C@@H](N)CSSC[C@@H](C(=O)O)NC(=O)[C@@H]2CCCN2C(=O)[C@H](CCCCN)NC(=O)[C@@H]2CCCN2C(=O)[C@@H]2CCCN2C1=O` [BT37] (H-CGWTKSIPPKPC-OH; disulfide 1-12), for which the IC50 is greater than 50000 nM.

For orientation: Ki means the equilibrium dissociation constant of an inhibitor or competing ligand from its target. In the case of `CC[C@H](C)[C@@H]1NC(=O)[C@@H]2CCCN2C(=O)[C@@H]2CCCN2C(=O)[C@H]([C@@H](C)CC)NC(=O)[C@H](CO)NC(=O)[C@H](CCCCN)NC(=O)[C@H]([C@@H](C)O)NC(=O)[C@H](CCC(N)=O)NC(=O)[C@H](CCCNC(=N)N)NC(=O)CNC(=O)[C@@H](N)CSSC[C@@H](C(=O)N[C@@H](Cc2ccccc2)C(=O)O)NC1=O` [BT54] (H-CGRQTKSIPPICF-OH; disulfide 1-12; C-terminus assumed), the “inhibitory activity … (in words)” value was “good inhibitory activities against trypsin” and the IC50 came out at 60 nM. Under setting [1], the Ki was 10 nM. Further, the “inhibitory activity … (in words)” value (listed as SEQ ID NO: 54) is recorded as “excellent trypsin inhibitory activities”. Further, for the setting “peptide 0.000098 μM”, the Residual trypsin activity amounted to 101.0 ± 3.9%. Moreover, the Residual trypsin activity (peptide 0.00098 μM) is given as 99.2 ± 1.7%. For the same compound, the Residual trypsin activity (peptide 0.0098 μM) is recorded as 99.9 ± 4.1%. The Residual trypsin activity (peptide 0.0488 μM) turned out to be 65.8 ± 6.7%. Moreover, the Residual trypsin activity (peptide 0.0585 μM) was 58.4 ± 4.3%. The Residual trypsin activity (peptide 0.0780 μM) amounted to 24.3 ± 2.4%. For the setting “peptide 0.098 μM”, the Residual trypsin activity stood at 7.2 ± 2.4%. For the setting “peptide 0.98 μM”, the Residual trypsin activity is recorded as 0.1 ± 0.0%. In addition, where the note is “peptide 9.76 μM”, the Residual trypsin activity was −0.1 ± 0.0%.

Regarding `CC[C@H](C)[C@@H]1NC(=O)[C@H](CCCCN)NC(=O)[C@@H]2CCCN2C(=O)[C@@H](NC(=O)[C@H](CCCNC(=N)N)NC(=O)CN)CSSC[C@@H](C(=O)N[C@@H](Cc2ccccc2)C(=O)O)NC(=O)[C@H](CCCCN)NC(=O)[C@H](CCCCN)NC(=O)[C@H](CC(C)C)NC1=O` [BT41] (H-GRCPKILKKCF-OH; disulfide 3-10), the IC50 was greater than 50000 nM.

With `CC[C@H](C)[C@@H]1NC(=O)[C@@H]2CCCN2C(=O)[C@@H]2CCCN2C(=O)[C@H]([C@@H](C)CC)NC(=O)[C@H](CO)NC(=O)[C@H](CCCCN)NC(=O)[C@H]([C@@H](C)O)NC(=O)CNC(=O)[C@H](CCCCN)NC(=O)[C@H](C)NC(=O)CNC(=O)[C@@H](N)CSSC[C@@H](C(=O)N[C@@H](Cc2ccccc2)C(=O)N2CCC[C@H]2C(=O)N[C@@H](CC(=O)O)C(=O)O)NC1=O` [BT2] (H-CGAKGTKSIPPICFPD-OH; disulfide 1-13; N-terminus and C-terminus assumed), the Residual trypsin activity reads like this: (peptide 0.488 μM) 94.6 ± 1.7%; (peptide 0.98 μM) 83.6 ± 5.2%; (peptide 1.95 μM) 72.9 ± 6.1%; (peptide 2.93 μM) 51.2 ± 9.0%; (peptide 4.88 μM) 12.9 ± 1.3%; (peptide 9.76 μM) 4.2 ± 0.4%. Also, the Residual trypsin activity by setting is: (peptide 19.51 μM) 3.7 ± 0.5%; (peptide 39.02 μM) 0.5 ± 0.1%. Under setting [2], the Ki was 650 nM.

On to `CC[C@H](C)[C@@H]1NC(=O)[C@@H]2CCCN2C(=O)[C@@H]2CCCN2C(=O)[C@H]([C@@H](C)CC)NC(=O)[C@H](C)NC(=O)[C@H](CCCCN)NC(=O)[C@H]([C@@H](C)O)NC(=O)[C@H](C)NC(=O)[C@H](CCCNC(=N)N)NC(=O)CNC(=O)[C@@H](N)CSSC[C@@H](C(=O)N[C@@H](Cc2ccccc2)C(=O)O)NC1=O` [BT27] (H-CGRATKAIPPICF-OH; disulfide 1-12; C-terminus assumed), for which the “inhibitory activity … (in words)” value is recorded as “reduced their anti-trypsin activities”. Besides, the Ki under setting [1] was found to be 60 nM. For the same compound, the “inhibitory activity … (in words)” value (listed as SEQ ID NO: 27) was “excellent trypsin inhibitory activities”. Besides, for the setting “peptide 0.000098 μM”, the Residual trypsin activity was 101.0 ± 0.7%. For the same compound, the Residual trypsin activity (peptide 0.00098 μM) turned out to be 98.9 ± 1.5%. Besides, for the setting “peptide 0.0098 μM”, the Residual trypsin activity was 103.5 ± 2.4%. The Residual trypsin activity (peptide 0.098 μM) amounted to 92.0 ± 1.9%. For the same compound, the Residual trypsin activity (peptide 0.195 μM) was determined as 74.1 ± 1.3%. Moreover, the Residual trypsin activity (peptide 0.293 μM) came out at 49.2 ± 3.0%. Further, the Residual trypsin activity (peptide 0.390 μM) is recorded as 19.9 ± 6.3%. Further, the Residual trypsin activity (peptide 0.98 μM) amounted to 1.3 ± 0.3%. Moreover, the Residual trypsin activity (peptide 9.76 μM) is recorded as 0.1 ± 0.0%. The Residual trypsin activity (peptide 97.56 μM) is on record as 0.1 ± 0.0%.

For the compound `CC[C@H](C)[C@@H]1NC(=O)[C@@H]2CCCN2C(=O)[C@@H]2CCCN2C(=O)[C@H]([C@@H](C)CC)NC(=O)[C@H](CO)NC(=O)[C@H](CCCCN)NC(=O)[C@H]([C@@H](C)O)NC(=O)[C@H](C)NC(=O)[C@H](CCCNC(=N)N)NC(=O)[C@H](CO)NC(=O)[C@@H](N)CSSC[C@@H](C(=O)N[C@@H](Cc2ccccc2)C(=O)O)NC1=O` [BT75] (H-CSRATKSIPPICF-OH; disulfide 1-12; N-terminus and C-terminus assumed), the “inhibitory activity … (in words)” value was “excellent trypsin inhibitory activities” and the IC50 was determined as 40 nM. Under setting [1], the inhibition constant Ki came out at 8.5 nM.

On to `CC[C@H](C)[C@@H]1NC(=O)[C@@H]2CCCN2C(=O)[C@@H]2CCCN2C(=O)[C@H]([C@@H](C)CC)NC(=O)[C@H](CO)NC(=O)[C@H](CCCNC(=N)N)NC(=O)[C@H]([C@@H](C)O)NC(=O)[C@H](C)NC(=O)[C@H](CCCNC(=N)N)NC(=O)CNC(=O)[C@@H](N)CSSC[C@@H](C(=O)N[C@@H](Cc2ccccc2)C(=O)O)NC1=O` [BT17] (H-CGRATRSIPPICF-OH; disulfide 1-12; C-terminus assumed), for which the “inhibitory activity … (in words)” value is “excellent trypsin inhibitory activities”. Besides, the Ki under setting [1] was 120 nM. Moreover, under “peptide 0.00098 μM”, the Residual trypsin activity is on record as 97.9 ± 0.8%. For the same compound, the Residual trypsin activity (peptide 0.0098 μM) is 97.5 ± 0.7%. Besides, the Residual trypsin activity (peptide 0.098 μM) turned out to be 93.6 ± 4.5%. The Residual trypsin activity (peptide 0.488 μM) was found to be 61.9 ± 3.0%. The Residual trypsin activity (peptide 0.7317 μM) was found to be 30.0 ± 5.3%. Besides, the Residual trypsin activity (peptide 0.98 μM) came out at 1.5 ± 0.3%. For the same compound, the Residual trypsin activity (peptide 9.76 μM) is listed as 0.1 ± 0.0%. In addition, the Residual trypsin activity (peptide 97.56 μM) is on record as 0.1 ± 0.0%. For the same compound, the “decrease in inhibitory activity compared to BT9” value (trypsin) is on record as roughly 12 fold.

Regarding `CC[C@H](C)[C@@H]1NC(=O)[C@@H]2CCCN2C(=O)[C@@H]2CCCN2C(=O)[C@H]([C@@H](C)CC)NC(=O)[C@H](CO)NC(=O)[C@H](CCCCN)NC(=O)[C@H]([C@@H](C)O)NC(=O)[C@H](C)NC(=O)[C@H](CCCNC(=N)N)NC(=O)[C@H](CCCCN)NC(=O)[C@@H](N)CSSC[C@@H](C(=O)N[C@@H](Cc2ccccc2)C(=O)O)NC1=O` [BT77] (H-CKRATKSIPPICF-OH; disulfide 1-12; N-terminus and C-terminus assumed), the “inhibitory activity … (in words)” value is given as “excellent trypsin inhibitory activities” and the half-inhibitory concentration (IC50) was determined as 40 nM. In addition, under setting [1], the Ki is 8.5 nM.

`CC[C@H](C)[C@@H]1NC(=O)[C@@H]2CCCN2C(=O)[C@@H]2CCCN2C(=O)[C@H]([C@@H](C)CC)NC(=O)[C@H](CO)NC(=O)[C@H](CCCCN)NC(=O)[C@H]([C@@H](C)O)NC(=O)[C@H](C)NC(=O)[C@H](CCCCN)NC(=O)[C@H](C)NC(=O)CNC(=O)[C@@H](N)CSSC[C@@H](C(=O)N[C@@H](Cc2ccccc2)C(=O)N2CCC[C@H]2C(=O)N[C@@H](CC(=O)O)C(=O)O)NC1=O` [BT3] (H-CGAKATKSIPPICFPD-OH; disulfide 1-13; N-terminus and C-terminus assumed): the Residual trypsin activity by setting is: (peptide 0.098 μM) 95.7 ± 3.6%; (peptide 0.1463 μM) 86.8 ± 2.5%; (peptide 0.293 μM) 85.6 ± 1.3%; (peptide 0.488 μM) 67.2 ± 4.8%; (peptide 0.98 μM) 23.3 ± 5.3%; (peptide 4.88 μM) 1.8 ± 0.9%. Besides, the Residual trypsin activity came to 0.9 ± 0.4% (peptide 9.76 μM) and 0.1 ± 0.0% (peptide 19.51 μM). Moreover, the inhibitory constant (Ki) under setting [2] was determined as 140 nM.

Turning to `CC[C@H](C)[C@@H]1NC(=O)[C@H](CO)NC(=O)[C@H](CCCCN)NC(=O)[C@H]([C@@H](C)O)NC(=O)[C@H](C)NC(=O)[C@H](CCCNC(=N)N)NC(=O)CNC(=O)[C@@H](N)CSSC[C@@H](C(=O)O)NC(=O)[C@H](Cc2ccccc2)NC(=O)[C@H](C)NC(=O)[C@@H]2CCCN2C(=O)[C@@H]2CCCN2C1=O` [BT31] (H-CGRATKSIPPAFC-OH; disulfide 1-13 (inferred); N-terminus and C-terminus assumed), the IC50 was greater than 50000 nM.
